Assay results reported in patent US20200172966A1 (YAMAGUCHI UNIVERSITY, priority 2015, published 2020).

Experiment: incidence of side effect (hematologic toxicity) by single nucleotide polymorphism genotype in Japanese patients with colon cancer who had received irinotecan
Type: in vivo, human
Procedure: By using TaqMan SNP Assays Human (manufactured by Applied Biosystems, Inc.) and LightCycler (R) 480 Probe Master (manufactured by Roche Diagnostics, Inc.), Universal ProbeLibrary (manufactured by Roche Diagnostics, Inc.), and LightCycler 480 System II (manufactured by Roche Diagnostics, Inc.), 10 ng of genomic DNA was subjected to genotyping. After incubation at 95° C. for 10 min, the sample was subjected to PCR amplification with 55 cycles for rs1980576, rs2272761, and rs9425343, 45 cycles for rs12577167, rs7265854, and rs1135640, or 40 cycles for rs1547 (1 cycle consisted of 92° C. for 15 sec and 60° C. for 60 sec). The fluorescence emitted from the PCR products were measured.
The “Odds ratio” in Table 3 refers to an odds ratio indicating the occurrence of a side effect as calculated using a Fisher's exact test on a single nucleotide polymorphism being homozygous for a wild-type or homozygous for a variant type.
The term (P value/C.-A.) in Table 4 is the same as in Table 2. […] The term “Odds ratio” in Table 5 is the same as in Table 3.

[1] = N = 67, homozygous UGT1A1*28, homozygous *6, compound heterozygous excluded (Table 2), ACOX1 rs1135640 C/C
[2] = N = 67, homozygous UGT1A1*28, homozygous *6, compound heterozygous excluded (Table 2), ACOX1 rs1135640 C/G
[3] = N = 67, homozygous UGT1A1*28, homozygous *6, compound heterozygous excluded (Table 2), ACOX1 rs1135640 G/G
[4] = N = 67, homozygous UGT1A1*28, homozygous *6, compound heterozygous excluded (Table 3), ACOX1 rs1135640 G/G
[5] = N = 67, homozygous UGT1A1*28, homozygous *6, compound heterozygous excluded, ACOX1 rs1135640 C/C, C/G
[6] = N = 67, homozygous UGT1A1*28, homozygous *6, compound heterozygous excluded, APCDD1L rs1980576 A/A
[7] = N = 67, homozygous UGT1A1*28, homozygous *6, compound heterozygous excluded, APCDD1L rs1980576 A/A, A/G
[8] = N = 67, homozygous UGT1A1*28, homozygous *6, compound heterozygous excluded, APCDD1L rs1980576 A/G, G/G
[9] = N = 67, homozygous UGT1A1*28, homozygous *6, compound heterozygous excluded, APCDD1L rs1980576 G/G
[10] = N = 67, homozygous UGT1A1*28, homozygous *6, compound heterozygous excluded, APCDD1L rs7265854 C/C
[11] = N = 67, homozygous UGT1A1*28, homozygous *6, compound heterozygous excluded, APCDD1L rs7265854 T/T, T/C
[12] = N = 67, homozygous UGT1A1*28, homozygous *6, compound heterozygous excluded, EDEM3 rs9425343 T/G, G/G
[13] = N = 67, homozygous UGT1A1*28, homozygous *6, compound heterozygous excluded, EDEM3 rs9425343 T/T
[14] = N = 67, homozygous UGT1A1*28, homozygous *6, compound heterozygous excluded, R3HCC1 rs2272761 G/A, A/A
[15] = N = 68, homozygous UGT1A1*28, homozygous *6, compound heterozygous excluded, APCDD1L rs1980576 A/A
[16] = N = 68, homozygous UGT1A1*28, homozygous *6, compound heterozygous excluded, APCDD1L rs1980576 A/G
[17] = N = 68, homozygous UGT1A1*28, homozygous *6, compound heterozygous excluded, APCDD1L rs1980576 G/G
[18] = N = 68, homozygous UGT1A1*28, homozygous *6, compound heterozygous excluded, APCDD1L rs7268854 A/A
[19] = N = 68, homozygous UGT1A1*28, homozygous *6, compound heterozygous excluded, APCDD1L rs7268854 A/G
[20] = N = 68, homozygous UGT1A1*28, homozygous *6, compound heterozygous excluded, APCDD1L rs7268854 G/G
[21] = N = 68, homozygous UGT1A1*28, homozygous *6, compound heterozygous excluded, CSMD2 rs474474 A/A
[22] = N = 68, homozygous UGT1A1*28, homozygous *6, compound heterozygous excluded, CSMD2 rs474474 A/G
[23] = N = 68, homozygous UGT1A1*28, homozygous *6, compound heterozygous excluded, CSMD2 rs474474 G/G
[24] = N = 68, homozygous UGT1A1*28, homozygous *6, compound heterozygous excluded, EDEM3 rs9425343 G/G
[25] = N = 68, homozygous UGT1A1*28, homozygous *6, compound heterozygous excluded, EDEM3 rs9425343 T/G
[26] = N = 68, homozygous UGT1A1*28, homozygous *6, compound heterozygous excluded, EDEM3 rs9425343 T/T
[27] = N = 68, homozygous UGT1A1*28, homozygous *6, compound heterozygous excluded, GATA2 rs2335052 A/A
[28] = N = 68, homozygous UGT1A1*28, homozygous *6, compound heterozygous excluded, GATA2 rs2335052 G/A
[29] = N = 68, homozygous UGT1A1*28, homozygous *6, compound heterozygous excluded, GATA2 rs2335052 G/G
[30] = N = 68, homozygous UGT1A1*28, homozygous *6, compound heterozygous excluded, MKKS rs1547 C/C
[31] = N = 68, homozygous UGT1A1*28, homozygous *6, compound heterozygous excluded, MKKS rs1547 C/T
[32] = N = 68, homozygous UGT1A1*28, homozygous *6, compound heterozygous excluded, MKKS rs1547 T/T
[33] = N = 68, homozygous UGT1A1*28, homozygous *6, compound heterozygous excluded, OR5112 rs12577167 A/A
[34] = N = 68, homozygous UGT1A1*28, homozygous *6, compound heterozygous excluded, OR5112 rs12577167 A/G
[35] = N = 68, homozygous UGT1A1*28, homozygous *6, compound heterozygous excluded, OR5112 rs12577167 G/G
[36] = N = 68, homozygous UGT1A1*28, homozygous *6, compound heterozygous excluded, R3HCC1 rs2272761 A/A
[37] = N = 68, homozygous UGT1A1*28, homozygous *6, compound heterozygous excluded, R3HCC1 rs2272761 G/A
[38] = N = 68, homozygous UGT1A1*28, homozygous *6, compound heterozygous excluded, R3HCC1 rs2272761 G/G

CCc1c2c(nc3ccc(OC(=O)N4CCC(N5CCCCC5)CC4)cc13)-c1cc3c(c(=O)n1C2)COC(=O)[C@]3(O)CC [irinotecan, 1,4′-Bipiperidine-1′-carboxylic acid (S)-4,11-diethyl-3,4,12,14-tetrahydro-4-hydroxy-3,14-dioxo-1H-pyrano[3′,4′:6,7]indolizino[1,2-b]quinolin-9-yl ester]
irinotecan side effect observed (68 cases considered to have a low risk of a side effect in view of the UGT1A gene polymorphisms): 42.6%
Toxicity No [1]: 3
Toxicity Yes [1]: 6
Toxicity No [2]: 14
Toxicity Yes [2]: 15
Toxicity No [3]: 21
Toxicity Yes [3]: 8
Toxicity No [4]: 21
Toxicity Yes [4]: 8
Toxicity No [5]: 17
Toxicity Yes [5]: 21
Toxicity No [6]: 16
Toxicity Yes [6]: 5
Toxicity No [7]: 35
Toxicity Yes [7]: 21
Toxicity No [8]: 22
Toxicity Yes [8]: 24
Toxicity No [9]: 3
Toxicity Yes [9]: 8
Toxicity No [10]: 8
Toxicity Yes [10]: 1
Toxicity No [11]: 30
Toxicity Yes [11]: 28
Toxicity No [12]: 31
Toxicity Yes [12]: 17
Toxicity No [13]: 7
Toxicity Yes [13]: 12
Toxicity No [14]: 32
Toxicity Yes [14]: 29
Toxicity No (N = 67, homozygous UGT1A1*28, homozygous *6, compound heterozygous excluded, R3HCC1 rs2272761 G/G): 6
Toxicity No [15]: 16
Toxicity Yes [15]: 5
Toxicity No [16]: 20
Toxicity Yes [16]: 16
Toxicity No [17]: 3
Toxicity Yes [17]: 8
Toxicity No [18]: 13
Toxicity Yes [18]: 13
Toxicity No [19]: 18
Toxicity Yes [19]: 15
Toxicity No [20]: 8
Toxicity Yes [20]: 1
Toxicity No [21]: 16
Toxicity Yes [21]: 17
Toxicity No [22]: 18
Toxicity Yes [22]: 8
Toxicity No [23]: 5
Toxicity Yes [23]: 4
Toxicity No [24]: 10
Toxicity Yes [24]: 3
Toxicity No [25]: 21
Toxicity Yes [25]: 14
Toxicity No [26]: 8
Toxicity Yes [26]: 12
Toxicity No [27]: 5
Toxicity Yes [27]: 3
Toxicity No [28]: 20
Toxicity Yes [28]: 10
Toxicity No [29]: 14
Toxicity Yes [29]: 16
Toxicity No [30]: 20
Toxicity Yes [30]: 8
Toxicity No [31]: 16
Toxicity Yes [31]: 16
Toxicity No [32]: 3
Toxicity Yes [32]: 5
Toxicity No [33]: 19
Toxicity Yes [33]: 20
Toxicity No [34]: 14
Toxicity Yes [34]: 8
Toxicity No [35]: 6
Toxicity Yes [35]: 1
Toxicity No [36]: 22
Toxicity Yes [36]: 21
Toxicity No [37]: 11
Toxicity Yes [37]: 8
Toxicity No [38]: 6
Toxicity Yes [38]: 0
